Measured values from patent publication US6924289B2, “Benzyl(Idene)-lactam derivatives, their preparation and their use as selective (ANT) agonists of 5-HT1A- and/or 5-HT1D receptors” (Pfizer Inc, priority 1996, dated 2005).
Counter-ions that a name gives are not always drawn.

| melting point | Structure (SMILES) |
| --- | --- |
| 106 to 108 °C | CN1CCN(c2ccccc2CC2CCCN(c3ccc(Cl)c(Cl)c3)C2=O)CC1.Cl (stereo not drawn) |
| 83 to 85 °C | CN1CCN(c2ccc(F)cc2CC2CCCN(c3ccc(Cl)c(Cl)c3)C2=O)CC1.Cl (stereo not drawn) |
| 111 to 112 °C | CN(C)CCOc1ccccc1C=C1CCN(c2ccc(Cl)c(Cl)c2)C1=O (as salt: HCl) [Example 27, 1-(3,4-Dichlorophenyl)-3-[2-(2-dimethylaminoethoxy)-benzylidene]-pyrrolidin-2one] |
| 181 to 183 °C | CN1CCN(c2ccccc2C=C2CCN(c3ccc(C(F)(F)F)cc3)C2=O)CC1 (as salt: hydrochloride) (hydrate or solvate) [Example 16, 3-[2-(4-Methylpiperazin-1-yl)-benzylidene]-1-(4-trifluoromethylphenyl)-pyrrolidin-2-one] |
| 120 °C (dec.) | CN1CCN(c2ccccc2C=C2C(=O)N(C)c3ccccc32)CC1.Cl.O (hydrate or solvate) |
| 177 to 178 °C | CN1CCN(c2ccccc2C=C2CCCN(c3ccc(Cl)cc3)C2=O)CC1 [Example 11, 1-(4Chlorophenyl)-3-[2-(4-methylpiperazin-1-yl)-benzylidene]-piperidin-2-one] |
| 138 to 139.5 °C | CN1CCN(c2ccccc2C=C2CCCN(c3ccc(Cl)c(Cl)c3)C2=O)CC1 [Example 12, 1-(3,4-Dichlorophenyl)-3-[2-(4-methylpiperazin-1-yl)-benzylidene]-piperidin-2-one] |
| 158 to 159 °C | CN1CCN(c2ccc(F)cc2C=C2CCCN(c3ccc(Cl)cc3)C2=O)CC1 [Example 13, 1-(4-Chlorophenyl)-3-[5-fluoro-2-(4-methylpiperazin-1-yl)-benzylidene]-piperidin-2-one] |
| 161 to 162 °C | CN1CCN(c2ccc(F)cc2C=C2CCCN(c3ccc(Cl)c(Cl)c3)C2=O)CC1 [Example 14, 1-(3,4-Dichlorophenyl)-3-[5-fluoro-2-(4methylpiperazin-1-yl)-benzylidene]-piperidin-2-one] |
| 178 to 179.5 °C | CN1CCN(c2ccccc2C=C2CCN(c3ccccc3)C2=O)CC1 [Example 15, 3-[2-(4-Methylpiperazin-1-yl)-benzylidene]-1 phenylpyrrolidin-2-one] |
| 185 to 186.5 °C | CN1CCN(c2ccccc2C=C2CCN(c3ccc(C(F)(F)F)cc3)C2=O)CC1 [Example 16, 3-[2-(4-Methylpiperazin-1-yl)-benzylidene]-1-(4-trifluoromethylphenyl)-pyrrolidin-2-one] |
| 188 to 190 °C | CN1CCN(c2ccccc2C=C2CCN(c3ccc(Cl)cc3)C2=O)CC1 [Example 18, 1-(4-Chlorophenyl)-3-[2-(4-methylpiperazin-1-yl)-benzylidene]-pyrrolidin-2-one] |
| 199 to 200.5 °C | CN1CCN(c2cc(F)ccc2C=C2CCN(c3ccccc3)C2=O)CC1 [Example 19, 3-[4Fluoro-2-(4-methylpiperazin-1-yl)-benzylidene]-1-phenylpyrrolidin-2-one] |
| 170 to 171 °C | CN1CCN(c2cccc(F)c2C=C2CCN(c3ccc(Cl)c(Cl)c3)C2=O)CC1 [Example 20, 1-(3,4-Dichlorophenyl)-3-[2-fluoro-6-(4-methylpiperazin-1-yl)-benzylidene]-pyrrolidin-2-one] |
| 168 to 170 °C | CN1CCN(c2ccc(F)cc2C=C2CCCN(c3ccc(F)c(F)c3)C2=O)CC1 [Example 21, 1-(3,4-Difluorophenyl)-3-[5-fluoro-2(4-methylpiperazin-1-yl)-benzylidene]-piperidin-2-one] |
| 88 to 90 °C | CN1CCN(c2ccc(F)cc2C=C2CCCN(CCc3ccc(Cl)cc3)C2=O)CC1 [Example 22, 1-[2-(4Chlorophenyl)ethyl]-3-[5-fluoro-2-(4-methylpiperazin-1-yl)-benzylidene]-piperidin-2-one] |
| 129 to 130 °C | CN1CCN(c2ccccc2C=C2CCN(Cc3ccc(Cl)cc3)C2=O)CC1 [Example 23, 1-(4-Chlorobenzyl)-3-[2-(4-methylpiperazin-1-yl)-benzylidene]-pyrrolidin-2-one] |
| 131 to 132 °C | CN1CCN(c2ccc(F)cc2C=C2CCN(Cc3ccc(Cl)cc3)C2=O)CC1 [Example 24, 1-(4-Chlorobenzyl)-3-[5-fluoro-2-(4-methylpiperazin-1-yl)-benzylidene]-pyrrolidin-2one] |
| 149 to 150 °C | Cc1ccc(N2CCN(C)CC2)c(C=C2CCN(c3ccc(Cl)c(Cl)c3)C2=O)c1 [Example 28, 1-(3,4-Dichlorophenyl)-3-[5-methyl-2-(4-methylpiperazin-1-yl)-benzylidene]-pyrrolidin-2one] |
| 130 to 131 °C | CN1CCN(c2ccccc2CC2CCN(c3ccc(F)c(F)c3)C2=O)CC1 (stereo not drawn) [Example 29, 1-(3,4-Difluorophenyl)-3-[2-(4-methylpiperazin-1-yl)-benzyl]-pyrrolidin-2-one] |
| 104 to 105.5 °C | CN1CCN(c2ccccc2CC2CCN(c3ccccc3)C2=O)CC1 (stereo not drawn) [Example 30, 3-[2-(4-Methylpiperazin-1-yl)-benzyl]-1-phenyl-pyrrolidin-2-one] |
